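Five concentrations, 48 hours, 96-well plates. The concentration for 50% growth inhibition is given as GI50.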 Active and inactive are the calls of the source. No stated cut-off is given here; in the data, active = GI50 up to about 1.1 µM and inactive = higher.
Key:
Experiment in all cases: NCI anticancer screen, dose series, 48 h
SR = system: SR
SNB-78 = system: SNB-78
NCI-H23 = system: NCI-H23
SNB-75 = system: SNB-75
OVCAR-8 = system: OVCAR-8
UACC-62 = system: UACC-62
SK-MEL-2 = system: SK-MEL-2
HL-60 = system: HL-60
DLD-1 = system: DLD-1
HOP-62 = system: HOP-62
SNB-19 = system: SNB-19
CAKI-1 = system: CAKI-1
K562 = system: K562
HCT-15 = system: HCT-15
KM12 = system: KM12
ACHN = system: ACHN
OVCAR-3 = system: OVCAR-3
SW-620 = system: SW-620
UO-31 = system: UO-31
COLO 205 = system: COLO 205
UACC-257 = system: UACC-257
LXFL 529 = system: LXFL 529
786-0 = system: 786-0
SF-295 = system: SF-295
HCT-116 = system: HCT-116
HT-29 = system: HT-29
HOP-18 = system: HOP-18
Malme-3M = system: Malme-3M
NCI-H522 = system: NCI-H522
HOP-92 = system: HOP-92
SK-MEL-5 = system: SK-MEL-5
IGROV-1 = system: IGROV-1
SK-OV-3 = system: SK-OV-3
A549 = system: A549
M19-MEL = system: M19-MEL
KM-20L2 = system: KM-20L2
RXF 393 = system: RXF 393
CCRF-CEM = system: CCRF-CEM
LOX IMVI = system: LOX IMVI
M14 = system: M14
RPMI-8226 = system: RPMI-8226
EKVX = system: EKVX
TK-10 = system: TK-10
SF-268 = system: SF-268
MOLT-4 = system: MOLT-4
SK-MEL-28 = system: SK-MEL-28
U-251 = system: U-251
SN12C = system: SN12C
HCC 2998 = system: HCC 2998
NCI/ADR-RES = system: NCI/ADR-RES
OVCAR-5 = system: OVCAR-5
DMS-114 = system: DMS-114
A498 = system: A498
SF-539 = system: SF-539
DMS-273 = system: DMS-273
OVCAR-4 = system: OVCAR-4
NCI-H226 = system: NCI-H226
NCI-H460 = system: NCI-H460
MCF7 = system: MCF7

SMILES: O=C1Nc2ccc(Br)cc2/C1=N/Nc1ccc([N+](=O)[O-])cc1[N+](=O)[O-]
- GI50 (SR): 2.86 µM (inactive)
- GI50 (SNB-78): 4.51 µM (inactive)
- GI50 (NCI-H23): 2.49 µM (inactive)
- GI50 (SNB-75): 4.1 µM (inactive)
- GI50 (OVCAR-8): 3.93 µM (inactive)
- GI50 (UACC-62): 3.85 µM (inactive)
- GI50 (SK-MEL-2): 2.13 µM (inactive)
- GI50 (HL-60): 1.92 µM (inactive)
- GI50 (DLD-1): 4.58 µM (inactive)
- GI50 (HOP-62): 5.7 µM (inactive)
- GI50 (SNB-19): 4.71 µM (inactive)
- GI50 (CAKI-1): 13.9 µM (inactive)
- GI50 (K562): 3.05 µM (inactive)
- GI50 (HCT-15): 3.12 µM
- GI50 (KM12): 4.13 µM (inactive)
- GI50 (ACHN): 2.82 µM (inactive)
- GI50 (OVCAR-3): 5.82 µM (inactive)
- GI50 (SW-620): 3.18 µM (inactive)
- GI50 (UO-31): 2.48 µM (inactive)
- GI50 (COLO 205): 2.47 µM (inactive)
- GI50 (UACC-257): 3.89 µM (inactive)
- GI50 (LXFL 529): 3.66 µM (inactive)
- GI50 (786-0): 2.77 µM (inactive)
- GI50 (SF-295): 3.91 µM (inactive)
- GI50 (HCT-116): 1.55 µM (inactive)
- GI50 (HT-29): 3.78 µM (inactive)
- GI50 (HOP-18): 1.12 µM (inactive)
- GI50 (Malme-3M): 3.08 µM (inactive)
- GI50 (NCI-H522): 2.42 µM (inactive)
- GI50 (HOP-92): 1.98 µM (inactive)
- GI50 (SK-MEL-5): 1.83 µM (inactive)
- GI50 (IGROV-1): 7.74 µM (inactive)
- GI50 (SK-OV-3): 12.5 µM (inactive)
- GI50 (A549): 5.47 µM (inactive)
- GI50 (M19-MEL): 3.54 µM (inactive)
- GI50 (KM-20L2): 3.14 µM (inactive)
- GI50 (RXF 393): 4.15 µM (inactive)
- GI50 (CCRF-CEM): 3.02 µM (inactive)
- GI50 (LOX IMVI): 1.73 µM (inactive)
- GI50 (M14): 4.8 µM (inactive)
- GI50 (RPMI-8226): 2.81 µM (inactive)
- GI50 (EKVX): 11.3 µM (inactive)
- GI50 (TK-10): 17.1 µM (inactive)
- GI50 (SF-268): 4.33 µM (inactive)
- GI50 (MOLT-4): 3.44 µM (inactive)
- GI50 (SK-MEL-28): 3.33 µM (inactive)
- GI50 (U-251): 4.22 µM (inactive)
- GI50 (SN12C): 3.04 µM (inactive)
- GI50 (HCC 2998): 10.2 µM (inactive)

SMILES: CN(C)C(=O)/C=C/c1c[nH]c(=O)[nH]c1=O
- GI50 (NCI-H23): > 500 µM (inactive)
- GI50 (SNB-75): > 500 µM (inactive)
- GI50 (OVCAR-8): > 500 µM (inactive)
- GI50 (UACC-62): > 500 µM (inactive)
- GI50 (NCI/ADR-RES): > 500 µM (inactive)
- GI50 (SK-MEL-2): > 500 µM (inactive)
- GI50 (HL-60): 296 µM (inactive)
- GI50 (OVCAR-5): > 500 µM (inactive)
- GI50 (DLD-1): > 500 µM (inactive)
- GI50 (HOP-62): > 500 µM (inactive)
- GI50 (SNB-19): > 500 µM (inactive)
- GI50 (CAKI-1): > 500 µM (inactive)
- GI50 (K562): > 500 µM (inactive)
- GI50 (HCT-15): > 500 µM
- GI50 (KM12): > 500 µM (inactive)
- GI50 (DMS-114): > 500 µM (inactive)
- GI50 (OVCAR-3): > 500 µM (inactive)
- GI50 (SW-620): > 500 µM (inactive)
- GI50 (A498): > 500 µM (inactive)
- GI50 (UO-31): > 500 µM (inactive)
- GI50 (COLO 205): > 500 µM (inactive)
- GI50 (UACC-257): > 500 µM (inactive)
- GI50 (SF-295): > 500 µM (inactive)
- GI50 (HCT-116): > 500 µM (inactive)
- GI50 (HT-29): > 500 µM (inactive)
- GI50 (SF-539): > 500 µM (inactive)
- GI50 (DMS-273): > 500 µM (inactive)
- GI50 (HOP-18): > 500 µM (inactive)
- GI50 (Malme-3M): > 500 µM (inactive)
- GI50 (NCI-H522): > 500 µM (inactive)
- GI50 (HOP-92): > 500 µM (inactive)
- GI50 (SK-MEL-5): > 500 µM (inactive)
- GI50 (IGROV-1): > 500 µM (inactive)
- GI50 (SK-OV-3): > 254 µM (inactive)
- GI50 (A549): > 500 µM (inactive)
- GI50 (KM-20L2): > 500 µM (inactive)
- GI50 (RXF 393): > 500 µM (inactive)
- GI50 (OVCAR-4): > 500 µM (inactive)
- GI50 (NCI-H226): > 500 µM (inactive)
- GI50 (CCRF-CEM): > 500 µM (inactive)
- GI50 (LOX IMVI): > 500 µM (inactive)
- GI50 (NCI-H460): > 500 µM (inactive)
- GI50 (RPMI-8226): > 316 µM (inactive)
- GI50 (EKVX): > 281 µM (inactive)
- GI50 (MCF7): > 500 µM (inactive)
- GI50 (SF-268): > 500 µM (inactive)
- GI50 (MOLT-4): > 500 µM (inactive)
- GI50 (SK-MEL-28): > 500 µM (inactive)
- GI50 (U-251): > 500 µM (inactive)
- GI50 (SN12C): > 500 µM (inactive)
- GI50 (HCC 2998): > 500 µM (inactive)

Reference: ChEMBL document CHEMBL1201862, “PubChem BioAssay data set” (2004)
